Source: paper PMC12402003 (Frontiers in Nutrition, 2025)

Key:
Caco-2 cell monolayers = experiment: Bidirectional transport across Caco-2 cell monolayer; assay type: in vitro ADME, human; details: 50 μmol/L, no inhibitor
Protocol: The cells were seeded at a density of approximately 10^5 cells/cm^2 on TranswellTM filter (Corning Inc., Lowell, MA) and cultured for 21 d before use. Cell monolayer integrity was controlled by the measurement of trans-epithelial electrical resistance (TEER) with an EVOM epithelial voltammeter equipped with an electrode (World Precision Instruments, Sarasota, FL, United States). […] (a) R(%)=CBL×VBL/CAP×VAP×100 In this, R represents the absorption rate (as a percentage); CBL is the anthocyanin concentration of the BL side (in μM); VBL is the volume of anthocyanins from the BL (in L); CAP is the initial anthocyanin concentration of the AP side (in μM), and VAP is the volume of anthocyanins in the AP chamber (in L). The absorption rate of anthocyanins from BL to AP is calculated using the following Equation b: (b) R(%)=CAP×VAP/CBL×VBL×100 In this, R represents the absorption rate (as a percentage); CAP is the anthocyanin concentration from the AP side (in μM); VAP is the volume of anthocyanins in the AP chamber (in mL); CBL is the initial concentration from the BL side (in μM) and VBL is the volume of anthocyanins in the BL chamber (in L).

HepG2 cells = experiment: TG and TC content in OA-induced high-fat HepG2 cells; assay type: cell-based, human; details: 1 mM OA high-fat model vs control group
Protocol: For high fat HepG2 model: […] Afterwards, cells were harvested and lysed. […] For TG and TC assay: […] The medium was removed and the cells were washed twice with PBS. The levels of triglycerides (TG) and total cholesterol (TC) in the cells were determined according to the instructions of test kits.

Fasn = experiment: Western blot of Fasn protein in Caco-2/HepG2 co-culture; assay type: cell-based, human; details: 1 mM OA vs. control, p < 0.01
Protocol: Cells from the co-culture model were lysed and supernatants were collected. The protein concentrations were determined using the BCA Protein Quantitation Kit. Then electrophoresis of samples was conducted using a SDS-PAGE kit (Beyotime Biotechnology) following the manufacturer’s instructions and transferred to poly-vinylidene difluoride (PVDF) membrane. Next, membranes were incubated in 5% nonfat milk to block non-specific antibody binding for 30 min at room temperature and followed by incubating with primary antibodies and secondary antibodies. Chemiluminescence based-images of the blots were acquired using ImageQuant LAS 500 system (GE, United States). Protein bands were quantified using ImageJ (version 1.53a) software. The changes in expression levels of these proteins detected finally are used to evaluate the sample’s effect on lipid metabolism.

| SMILES | ER (efflux rate) (Caco-2 cell monolayers; 30 min) | Papp (AP → BL) (Caco-2 cell monolayers; 30 min) | ER (efflux rate) (Caco-2 cell monolayers; 60 min) | Papp (AP → BL) (Caco-2 cell monolayers; 60 min) | ER (efflux rate) (Caco-2 cell monolayers; 90 min) | Papp (AP → BL) (Caco-2 cell monolayers; 90 min) | ER (efflux rate) (Caco-2 cell monolayers; 120 min) | Papp (AP → BL) (Caco-2 cell monolayers; 120 min) | ER (efflux rate) (Caco-2 cell monolayers; 150 min) | Papp (AP → BL) (Caco-2 cell monolayers; 150 min) | increase of TC level (HepG2 cells) [%] | increase of TG level (HepG2 cells) [%] | Fasn protein expression level (Fasn) [fold] |
| --- | --- | --- | --- | --- | --- | --- | --- | --- | --- | --- | --- | --- | --- |
| O=C1OC2(c3ccc(O)cc3Oc3cc(O)ccc32)c2ccccc21 [Fluorescin, Fluorescein, reference compound] | 0.56 | 5.75 ± 0.17 ×10^−5 cm /s | 0.34 | 5.07 ± 1.72 ×10^−5 cm /s | 0.3 | 4.59 ± 2.21 ×10^−5 cm /s | 0.27 | 4.6 ± 2.63 ×10^−5 cm /s | 0.25 | 4.65 ± 2.94 ×10^−5 cm /s |  |  |  |
| CCCCCCCC/C=C\CCCCCCCC(=O)O [OA, Oleic acid] |  |  |  |  |  |  |  |  |  |  | 12 | 22 | 1.59 ± 0.16 |
